Results published in patent publication US20060123501A1, “Method for treating inflammatory disorders” (priority 2004, published 2006).
Where two headings read alike, the source gives them in different places.

What was measured:
[1] = tested on: cIAP2−/− and cIAP2+/+ mice; test: Serum cytokine levels (ELISA) after i.p. LPS; format: in vivo, mouse
Description: LPS directly activates macrophages to produce large amounts of IL-1β and TNF-α and to mediate a cascade of events leading to endotoxic shock. We therefore assayed the levels of these pro-inflammatory cytokines in serum from cIAP2^−/− mice treated with LPS (35 mg LPS/kg). In cIAP2^−/− mice, IL-1β serum levels peaked at 4 h and then markedly dropped off (Table 4). This was in contrast to littermate controls where IL-1β levels decreased much later. […] As a further study, we also investigated the serum concentrations of IL-12 (Table 4) after an injection of LPS (35 mg/kg), yet again, we observed an attenuation of a macrophage cytokine, IL-12, by the 6 hour time point. Nevertheless, cIAP2^−/− mice did display early outward signs of sepsis, such as eye exudates and ruffled fur; however, their condition quickly ameliorated, corresponding to the observed waning of the LPS-induced inflammatory cytokines seen within the cIAP2^−/− mice.
Adult 4-6 week old mice (n=3), cIAP2^−/− and littermate control mice, were injected i.p. with a LD100 dose of LPS (35 mg LPS/kg). At the appropriate times mice were anesthetized with phenobarbital and killed by cervical dislocation. The plasma was then collected from these animals and used to determine serum concentrations of IL-1β, TNF-α and IL-12 via an ELISA kit (R & D Systems).

[2] = tested on: cIAP2−/− and control mice
Description: In addition, we exposed cIAP2^−/− mice to a second mode of LPS-induced toxicity, where treatment with D-galactosamine (DGLBN) sensitized mice to endotoxic shock.

splenic B cells = test: Proliferation of splenic B cells cultured with LPS; format: cell-based, mouse; settings: cIAP2−/− splenic B cells; LPS 0.1 to 100 μg/ml
Description: Spleen- and peritoneal-derived macrophage cell count numbers are shown (A) for cIAP2^−/−, cIAP2^+/− and cIAP2^+/+ mice (n=10). Both cIAP2^−/− and littermate control-derived macrophages stained for the LPS binding surface receptor CD14 (B). The proliferation of B cells for cIAP2^−/− mice and littermate controls of cIAP2^+/+ after culturing with the indicated range of LPS doses (n=6) (C). Cultured macrophages from cIAP2^−/− or littermate control cIAP2^+/+ mice were exposed to LPS for 10 h and subsequently IL-1β (D) or TNF-α (E) levels were measured by ELISA (n=6). Additionally, macrophages were exposed to the indicated range of LPS doses for 24 h and IL-1β (F) or TNF-α (G) levels were determined (n=6). Results are mean±s.d. in triplicate per mouse, P<0.01
This dysfunction may be correlated to a reduced initial number of macrophages, to a block in the LPS-induced signaling pathway, or to an increased apoptotic susceptibility of the cIAP2^−/− macrophages. […] The cIAP2^−/− mice and wild-type macrophages also stained similarly for the LPS-binding receptor, CD14 (FIG. 4B).

[3] = cIAP2+/+ mice, 2 hours after i.p. LPS 35 mg/kg
[4] = cIAP2+/+ mice, 6 hours after i.p. LPS 35 mg/kg
[5] = cIAP2+/+ mice, 10 hours after i.p. LPS 35 mg/kg
[6] = cIAP2−/− mice, 2 hours after i.p. LPS 35 mg/kg
[7] = cIAP2−/− mice, 6 hours after i.p. LPS 35 mg/kg
[8] = cIAP2−/− mice, 10 hours after i.p. LPS 35 mg/kg

Which results are given for lipopolysaccharide [LPS]?
IL-1β Serum Levels [1, 3]: 476 ± 24 pg/mL; IL-12 Serum Leves [1, 3]: 210 ± 17 pg/mL; TNFα Serum Levels [1, 3]: 1623 ± 348 pg/mL; IL-1β Serum Levels [1, 4]: 993 ± 158 pg/mL; IL-12 Serum Leves [1, 4]: 260 ± 31 pg/mL; TNFα Serum Levels [1, 4]: 502 ± 56 pg/mL; IL-1β Serum Levels [1, 5]: 669 ± 48 pg/mL; TNFα Serum Levels [1, 5]: 371 ± 64 pg/mL; IL-1β Serum Levels [1, 6]: 314 ± 153 pg/mL; IL-12 Serum Leves [1, 6]: 152 ± 24 pg/mL; TNFα Serum Levels [1, 6]: 1589 ± 413 pg/mL; IL-1β Serum Levels [1, 7]: 476 ± 78 pg/mL; IL-12 Serum Leves [1, 7]: 11 ± 5 pg/mL; TNFα Serum Levels [1, 7]: 202 ± 89 pg/mL; IL-1β Serum Levels [1, 8]: 162 ± 21 pg/mL; TNFα Serum Levels [1, 8]: 8 ± 7 pg/mL; Time of peak IL-1β serum levels ([1]; cIAP2−/− mice, LPS 35 mg/kg): 4 h; TNF-α serum levels ([1]; cIAP2−/− mice, by 10 hours, LPS 35 mg/kg): approximately 10 pg/ml; TNF-α serum levels (stabilized, maintained until death) ([1]; littermate controls, LPS 35 mg/kg): approximately 400 pg/ml; Time to demise of the mice ([2]; LPS with DGLN, cIAP2−/− mice and control littermates): < 3 h; Survival ([2]; cIAP2+/+ mice, LPS 0.5 μg/kg with D-galactosamine 0.6 g/kg i.p.): 6/6; Survival ([2]; cIAP2+/+ mice, LPS 1 μg/kg with D-galactosamine 0.6 g/kg i.p.): 6/6; Survival ([2]; cIAP2+/+ mice, LPS 5 μg/kg with D-galactosamine 0.6 g/kg i.p.): 2/6; Survival ([2]; cIAP2+/+ mice, LPS 10 μg/kg with D-galactosamine 0.6 g/kg i.p.): 0/6; Survival ([2]; cIAP2+/+ mice, LPS 20 μg/kg with D-galactosamine 0.6 g/kg i.p.): 0/6; Survival ([2]; cIAP2−/− mice, LPS 0.5 μg/kg with D-galactosamine 0.6 g/kg i.p.): 6/6; Survival ([2]; cIAP2−/− mice, LPS 1 μg/kg with D-galactosamine 0.6 g/kg i.p.): 6/6; Survival ([2]; cIAP2−/− mice, LPS 5 μg/kg with D-galactosamine 0.6 g/kg i.p.): 2/6; Survival ([2]; cIAP2−/− mice, LPS 10 μg/kg with D-galactosamine 0.6 g/kg i.p.): 0/6; Survival ([2]; cIAP2−/− mice, LPS 20 μg/kg with D-galactosamine 0.6 g/kg i.p.): 0/6; B cell proliferation in response to LPS (splenic B cells): proliferated normally
